Laboratory results from ChEMBL document CHEMBL1201862, “PubChem BioAssay data set” (2004).
Active and inactive are the calls of the source.

Tests used:
[1] = molecular target: T1, Microphthalmia-associated transcription factor (Homo sapiens, UniProt O75030); assay: TRPM1 promoter luciferase signal decrease, dose response, MITF inhibitor project, cell-based, SK-MEL-5, cherry-picked, set 3 (AID 493073); type: functional
T1 sequence (O75030 whole entry): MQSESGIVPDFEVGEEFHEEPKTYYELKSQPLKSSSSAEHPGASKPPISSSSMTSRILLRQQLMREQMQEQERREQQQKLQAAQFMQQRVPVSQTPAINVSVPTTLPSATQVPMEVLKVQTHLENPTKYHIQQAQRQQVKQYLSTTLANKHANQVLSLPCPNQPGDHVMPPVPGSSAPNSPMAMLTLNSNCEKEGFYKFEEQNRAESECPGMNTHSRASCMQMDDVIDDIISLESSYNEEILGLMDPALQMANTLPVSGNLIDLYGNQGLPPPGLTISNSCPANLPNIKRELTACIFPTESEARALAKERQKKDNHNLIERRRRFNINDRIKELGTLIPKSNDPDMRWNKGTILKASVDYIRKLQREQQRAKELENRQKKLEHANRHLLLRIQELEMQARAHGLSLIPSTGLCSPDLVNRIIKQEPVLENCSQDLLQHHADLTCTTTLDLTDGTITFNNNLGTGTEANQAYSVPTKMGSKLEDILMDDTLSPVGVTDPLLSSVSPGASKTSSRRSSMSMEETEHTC

[2] = test system: INS1; assay: beta cell apoptosis inhibitors, cytokine rescue, dose response, luminescence, retest (AID 449756); type: functional, cell-based; conditions: Rattus norvegicus;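 also: cell death triggered by IL-1 beta plus TNF-alpha plus IFN-gamma mixture; protective hits raise ATP signal compared with cytokine alone wells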
[3] = molecular target: T2, Fatty acid synthase (Homo sapiens, UniProt P49327); assay: FAS thioesterase domain inhibitors, dose response, biochemical, endpoint fluorescence intensity, uHTS hits (AID 624327); type: functional;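 also: fluorescence from hydrolysis of an O-methyl fluorescein acyl ester substrate by the enzyme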
T2 sequence (P49327 whole entry, the tested form may be a part): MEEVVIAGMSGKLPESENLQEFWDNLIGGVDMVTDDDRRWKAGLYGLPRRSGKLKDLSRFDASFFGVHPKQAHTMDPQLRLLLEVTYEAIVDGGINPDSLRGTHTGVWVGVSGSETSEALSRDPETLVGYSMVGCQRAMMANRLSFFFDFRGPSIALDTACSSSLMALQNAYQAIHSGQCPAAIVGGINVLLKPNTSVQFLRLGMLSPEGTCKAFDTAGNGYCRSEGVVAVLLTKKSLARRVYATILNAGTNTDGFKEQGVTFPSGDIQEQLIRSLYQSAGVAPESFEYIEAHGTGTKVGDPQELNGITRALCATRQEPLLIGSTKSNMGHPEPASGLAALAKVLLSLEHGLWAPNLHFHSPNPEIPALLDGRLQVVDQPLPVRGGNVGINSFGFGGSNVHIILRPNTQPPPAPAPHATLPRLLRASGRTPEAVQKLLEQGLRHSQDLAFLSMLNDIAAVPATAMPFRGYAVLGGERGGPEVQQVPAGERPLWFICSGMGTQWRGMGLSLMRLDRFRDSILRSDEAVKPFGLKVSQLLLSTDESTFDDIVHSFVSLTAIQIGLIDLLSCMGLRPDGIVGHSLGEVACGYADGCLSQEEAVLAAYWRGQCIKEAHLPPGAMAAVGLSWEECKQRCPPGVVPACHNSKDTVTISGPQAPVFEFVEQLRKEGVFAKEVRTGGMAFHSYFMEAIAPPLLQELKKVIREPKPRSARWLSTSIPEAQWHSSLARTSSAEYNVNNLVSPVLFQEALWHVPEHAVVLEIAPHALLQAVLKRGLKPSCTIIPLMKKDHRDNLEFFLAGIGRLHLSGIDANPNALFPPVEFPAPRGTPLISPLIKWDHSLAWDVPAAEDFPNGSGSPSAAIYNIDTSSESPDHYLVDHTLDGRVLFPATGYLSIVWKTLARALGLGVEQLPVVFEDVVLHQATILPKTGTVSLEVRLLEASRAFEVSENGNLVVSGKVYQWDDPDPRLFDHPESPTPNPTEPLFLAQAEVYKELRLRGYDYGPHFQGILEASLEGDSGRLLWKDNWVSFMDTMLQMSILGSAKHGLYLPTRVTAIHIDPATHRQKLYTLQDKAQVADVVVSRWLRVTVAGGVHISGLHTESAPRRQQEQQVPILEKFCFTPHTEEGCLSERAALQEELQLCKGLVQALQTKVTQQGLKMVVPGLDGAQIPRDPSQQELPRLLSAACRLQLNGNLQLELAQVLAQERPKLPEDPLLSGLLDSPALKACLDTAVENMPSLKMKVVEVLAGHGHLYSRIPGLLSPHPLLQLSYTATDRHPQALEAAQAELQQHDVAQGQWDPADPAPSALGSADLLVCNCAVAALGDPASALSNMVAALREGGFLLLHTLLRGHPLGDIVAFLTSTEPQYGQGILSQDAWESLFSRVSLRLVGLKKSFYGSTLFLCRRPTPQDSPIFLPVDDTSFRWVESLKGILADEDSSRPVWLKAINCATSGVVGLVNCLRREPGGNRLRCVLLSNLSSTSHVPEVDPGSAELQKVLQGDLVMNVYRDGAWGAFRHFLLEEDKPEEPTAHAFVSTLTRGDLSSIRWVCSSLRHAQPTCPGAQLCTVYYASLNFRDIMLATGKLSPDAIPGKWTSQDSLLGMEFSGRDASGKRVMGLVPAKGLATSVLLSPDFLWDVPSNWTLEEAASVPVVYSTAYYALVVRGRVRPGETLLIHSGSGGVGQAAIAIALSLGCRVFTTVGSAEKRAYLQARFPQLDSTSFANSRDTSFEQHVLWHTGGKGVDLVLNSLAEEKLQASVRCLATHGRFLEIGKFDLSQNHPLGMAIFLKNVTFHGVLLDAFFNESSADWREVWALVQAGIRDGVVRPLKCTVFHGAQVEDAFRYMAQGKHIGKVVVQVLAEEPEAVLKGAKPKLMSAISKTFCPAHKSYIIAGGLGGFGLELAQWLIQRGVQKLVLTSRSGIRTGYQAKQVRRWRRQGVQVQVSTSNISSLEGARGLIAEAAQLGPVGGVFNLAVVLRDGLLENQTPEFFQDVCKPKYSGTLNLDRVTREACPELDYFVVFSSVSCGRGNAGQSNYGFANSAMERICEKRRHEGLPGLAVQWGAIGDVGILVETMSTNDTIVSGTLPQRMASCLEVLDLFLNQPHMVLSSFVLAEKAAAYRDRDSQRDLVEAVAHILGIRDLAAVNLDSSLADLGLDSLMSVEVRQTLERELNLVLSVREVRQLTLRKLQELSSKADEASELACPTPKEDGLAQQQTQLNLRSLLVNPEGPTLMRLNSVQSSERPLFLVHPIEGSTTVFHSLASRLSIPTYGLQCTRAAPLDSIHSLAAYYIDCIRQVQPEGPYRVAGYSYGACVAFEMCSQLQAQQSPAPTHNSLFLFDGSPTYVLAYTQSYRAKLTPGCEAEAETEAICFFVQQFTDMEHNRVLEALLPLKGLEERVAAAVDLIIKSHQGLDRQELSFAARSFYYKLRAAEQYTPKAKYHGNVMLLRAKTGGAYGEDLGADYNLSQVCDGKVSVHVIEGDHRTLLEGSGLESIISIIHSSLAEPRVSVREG

[4] = molecular target: T2, Fatty acid synthase; assay: FAS thioesterase domain inhibitors, dose response, biochemical, kinetic fluorescence intensity (AID 624326); type: functional;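 also: rate of fluorescence rise from hydrolysis of a fluorogenic O-methyl fluorescein ester substrate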
[5] = molecular target: Nonstructural protein 1 (Influenza A virus, UniProt Q194T2); type: functional, Influenza A virus (A/California/07/2009(H1N1))
Chain of Nonstructural protein 1 (Q194T2 whole entry): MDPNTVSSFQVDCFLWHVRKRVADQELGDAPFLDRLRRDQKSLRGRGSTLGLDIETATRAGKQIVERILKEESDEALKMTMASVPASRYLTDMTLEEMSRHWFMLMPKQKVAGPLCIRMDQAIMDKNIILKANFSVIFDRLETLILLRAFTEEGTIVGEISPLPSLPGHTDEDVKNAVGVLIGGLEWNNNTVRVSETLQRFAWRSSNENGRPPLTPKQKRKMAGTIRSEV

[6] = molecular target: Paired box protein Pax-8 (Homo sapiens, UniProt Q06710); assay: inhibitors of PAX8-driven TPO luciferase reporter, dose response, RMG-I cells, cherry-pick (AID 687027); type: functional, cell-based;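 also: luciferase reporter driven by Pax8 target thyroperoxidase promoter measured by SteadyGlo luminescence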
Chain of Paired box protein Pax-8 (Q06710 whole entry): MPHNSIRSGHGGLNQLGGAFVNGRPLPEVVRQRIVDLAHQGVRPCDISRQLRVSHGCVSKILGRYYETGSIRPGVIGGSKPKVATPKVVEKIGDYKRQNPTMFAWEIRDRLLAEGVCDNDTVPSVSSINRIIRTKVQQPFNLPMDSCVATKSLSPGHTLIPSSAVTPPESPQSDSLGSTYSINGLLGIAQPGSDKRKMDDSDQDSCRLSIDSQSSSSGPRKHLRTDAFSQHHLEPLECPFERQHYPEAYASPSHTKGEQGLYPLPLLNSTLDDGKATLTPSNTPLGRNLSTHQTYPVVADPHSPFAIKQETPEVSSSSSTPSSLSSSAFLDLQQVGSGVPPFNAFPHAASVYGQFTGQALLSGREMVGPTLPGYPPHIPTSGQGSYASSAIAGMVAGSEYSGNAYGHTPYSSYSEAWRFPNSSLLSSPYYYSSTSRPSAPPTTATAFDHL

[7] = molecular target: T3, Corticotropin-releasing factor receptor 2/Corticotropin-releasing factor-binding protein (Homo sapiens, UniProt P24387+Q13324); assay: Dose Response confirmation of uHTS hits for small molecule antagonists of the CRF-binding protein and CRF-R2 receptor complex.; type: functional; conditions: read-out: IC50_Mean
T3 sequence (Q13324 whole entry): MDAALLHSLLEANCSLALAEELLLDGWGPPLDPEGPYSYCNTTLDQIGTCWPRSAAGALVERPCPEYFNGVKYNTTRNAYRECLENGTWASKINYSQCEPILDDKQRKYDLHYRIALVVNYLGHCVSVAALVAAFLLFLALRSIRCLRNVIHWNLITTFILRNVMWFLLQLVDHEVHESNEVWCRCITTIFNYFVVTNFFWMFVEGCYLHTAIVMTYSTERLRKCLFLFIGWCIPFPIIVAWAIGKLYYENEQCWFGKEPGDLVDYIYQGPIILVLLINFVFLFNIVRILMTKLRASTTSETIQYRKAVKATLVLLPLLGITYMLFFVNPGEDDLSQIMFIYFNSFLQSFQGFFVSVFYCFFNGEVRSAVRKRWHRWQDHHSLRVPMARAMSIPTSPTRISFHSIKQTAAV
T3 sequence (P24387 whole entry): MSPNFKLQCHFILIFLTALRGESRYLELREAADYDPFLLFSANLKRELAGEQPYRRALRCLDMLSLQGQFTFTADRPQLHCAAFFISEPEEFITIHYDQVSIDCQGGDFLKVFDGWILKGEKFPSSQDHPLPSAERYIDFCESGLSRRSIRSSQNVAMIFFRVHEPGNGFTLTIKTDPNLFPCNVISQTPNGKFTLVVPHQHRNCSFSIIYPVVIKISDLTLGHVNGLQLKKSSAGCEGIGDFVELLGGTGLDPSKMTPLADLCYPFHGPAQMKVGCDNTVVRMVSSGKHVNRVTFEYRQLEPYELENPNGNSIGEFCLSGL

[8] = molecular target: T3, Corticotropin-releasing factor receptor 2/Corticotropin-releasing factor-binding protein; assay: activators of CRF receptor 2 with binding protein – uHTS hits, confirmation (AID 602473); type: functional; conditions: read-out: EC50_Mean
[9] = NIH-3T3 fibroblast cytotoxicity, dose response, cytotoxicity control, cell-based, fluorescence, Alamar Blue, secondary assay (AID 2327); type: functional;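 also: NIH-3T3 mouse fibroblasts cultured with fluconazole at 8 µg/mL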
[10] = inhibitors of firefly luciferase expression or activity, dose response, H4 neuroglioma cells, luminescence (AID 1990); type: functional, cell-based
[11] = Luminescence Cell-Based Dose Response HTS to Identify Inhibitors of 5'UTR Stem-Loop Driven Prion Protein mRNA Translation in H4 Neuroglioblastoma Cells. [Related pubchem assays: 1827 (Project Summary), 1813 (Primary HTS)]; type: functional
[12] = inhibitors of SNCA 5'UTR-driven reporter translation, confirmation, H4 neuroglioma cells, luminescence (AID 1988); type: functional, cell-based
[13] = C. albicans growth with fluconazole, confirmation, fluorescence, retest (AID 2467); type: functional, cell-based
[14] = inhibitors of intracellular T. cruzi replication, confirmation, NIH3T3 host cells, beta-gal luminescence (AID 2044); type: functional, cell-based;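 also: intracellular parasites grown in NIH/3T3 mouse fibroblasts as host cells; luminescent beta-galactosidase reporter signal from transgenic T. cruzi replicating inside host cells; inhibitors lower the luminescence signal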
[15] = growth suppression of PTEN-null colon cells, dose response, cell-based, HCT116 PTEN knockout (AID 1047); type: functional;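 also: HCT116 colon tumor cells with PTEN knocked out; cells exposed to compound for 60 hours before readout; potency for loss of cell viability measured by luminescence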
[16] = cytotoxicity toward NIH3T3 fibroblasts, dose response, counter-screen, cell-based, ATP luminescence, mouse fibroblasts (AID 2010); type: functional;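 also: cells exposed to compound for about 90 hours before reading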
[17] = growth suppression of beta-catenin-knockout colon cells, dose response, cell-based, HCT116, human colon tumor (AID 1045); type: functional;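 also: HCT116 colon tumor cells with beta catenin knocked out; cells exposed to compound for 60 hours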
[18] = molecular target: T4, Replicative DNA helicase DnaB (Mycobacterium tuberculosis, UniProt P9WMR3); assay: DnaB intein splicing inhibitors, dose response, biochemical, cell-free fluorescence (AID 449749); type: functional
T4 sequence (P9WMR3 whole entry): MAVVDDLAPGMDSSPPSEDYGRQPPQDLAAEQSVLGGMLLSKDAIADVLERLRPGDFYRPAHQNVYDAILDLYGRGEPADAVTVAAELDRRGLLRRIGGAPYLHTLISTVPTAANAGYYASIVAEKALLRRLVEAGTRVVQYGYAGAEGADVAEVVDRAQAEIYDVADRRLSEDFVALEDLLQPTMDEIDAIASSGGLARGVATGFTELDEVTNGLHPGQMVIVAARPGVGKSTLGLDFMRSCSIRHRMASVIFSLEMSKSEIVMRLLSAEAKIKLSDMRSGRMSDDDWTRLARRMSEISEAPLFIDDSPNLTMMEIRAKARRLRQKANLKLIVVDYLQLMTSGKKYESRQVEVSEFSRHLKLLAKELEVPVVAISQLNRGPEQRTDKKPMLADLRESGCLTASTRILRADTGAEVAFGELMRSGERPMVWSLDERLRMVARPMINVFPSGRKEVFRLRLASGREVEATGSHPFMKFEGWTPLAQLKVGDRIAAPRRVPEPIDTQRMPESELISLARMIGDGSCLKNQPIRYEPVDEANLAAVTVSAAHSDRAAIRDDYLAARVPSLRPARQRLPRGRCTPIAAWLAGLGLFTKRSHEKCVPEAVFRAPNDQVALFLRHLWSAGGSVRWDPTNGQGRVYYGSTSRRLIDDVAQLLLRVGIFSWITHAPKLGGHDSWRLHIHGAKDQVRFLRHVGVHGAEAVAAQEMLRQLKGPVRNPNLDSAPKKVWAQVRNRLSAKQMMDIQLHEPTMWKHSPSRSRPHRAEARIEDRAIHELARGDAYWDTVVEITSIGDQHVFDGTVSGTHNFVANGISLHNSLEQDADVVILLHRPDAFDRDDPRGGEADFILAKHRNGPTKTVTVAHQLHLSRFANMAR

[19] = molecular target: T5, Protein RecA (Mycobacterium tuberculosis, UniProt P9WHJ3); assay: Fluorescence Cell-Free Homogeneous Dose Retest to Identify Inhibitors of RecA-Intein Splicing Activity. [Related pubchem assays (depositor defined):AID2097, AID2223, AID489010, AID492950]; type: functional
T5 sequence (P9WHJ3 whole entry): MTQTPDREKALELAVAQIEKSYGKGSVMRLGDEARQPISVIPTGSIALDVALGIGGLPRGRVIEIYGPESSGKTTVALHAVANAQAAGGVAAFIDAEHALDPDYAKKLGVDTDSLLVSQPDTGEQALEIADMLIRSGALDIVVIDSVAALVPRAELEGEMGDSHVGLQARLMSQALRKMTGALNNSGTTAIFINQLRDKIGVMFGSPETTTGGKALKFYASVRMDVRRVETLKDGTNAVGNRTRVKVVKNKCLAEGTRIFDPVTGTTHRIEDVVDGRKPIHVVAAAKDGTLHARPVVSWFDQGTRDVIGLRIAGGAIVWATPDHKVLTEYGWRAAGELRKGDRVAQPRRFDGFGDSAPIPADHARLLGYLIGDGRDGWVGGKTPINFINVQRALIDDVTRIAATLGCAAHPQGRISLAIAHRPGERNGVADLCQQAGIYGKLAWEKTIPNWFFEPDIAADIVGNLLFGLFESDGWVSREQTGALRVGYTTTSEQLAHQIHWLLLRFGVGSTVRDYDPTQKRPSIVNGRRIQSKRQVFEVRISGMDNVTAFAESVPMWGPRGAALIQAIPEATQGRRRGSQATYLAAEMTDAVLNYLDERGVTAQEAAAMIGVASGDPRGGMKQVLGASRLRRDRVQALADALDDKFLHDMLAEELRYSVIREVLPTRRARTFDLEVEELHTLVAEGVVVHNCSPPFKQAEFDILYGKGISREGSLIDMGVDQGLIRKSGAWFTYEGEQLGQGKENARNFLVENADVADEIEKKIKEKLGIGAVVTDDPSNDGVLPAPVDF

[20] = ZM109 Env clade C HIV-1 fusion inhibitors, dose response, HeLa effector, CEM target cells, luciferase, cherry-pick (AID 652058); type: functional, cell-based
[21] = molecular target: Glucose-6-phosphate 1-dehydrogenase (Homo sapiens, UniProt P11413); assay: human G6PD enzyme inhibitors, dose response, selectivity assay for P. falciparum G6PD inhibitor project, biochemical, fluorescence (AID 504792); type: functional
Chain of Glucose-6-phosphate 1-dehydrogenase (P11413 whole entry): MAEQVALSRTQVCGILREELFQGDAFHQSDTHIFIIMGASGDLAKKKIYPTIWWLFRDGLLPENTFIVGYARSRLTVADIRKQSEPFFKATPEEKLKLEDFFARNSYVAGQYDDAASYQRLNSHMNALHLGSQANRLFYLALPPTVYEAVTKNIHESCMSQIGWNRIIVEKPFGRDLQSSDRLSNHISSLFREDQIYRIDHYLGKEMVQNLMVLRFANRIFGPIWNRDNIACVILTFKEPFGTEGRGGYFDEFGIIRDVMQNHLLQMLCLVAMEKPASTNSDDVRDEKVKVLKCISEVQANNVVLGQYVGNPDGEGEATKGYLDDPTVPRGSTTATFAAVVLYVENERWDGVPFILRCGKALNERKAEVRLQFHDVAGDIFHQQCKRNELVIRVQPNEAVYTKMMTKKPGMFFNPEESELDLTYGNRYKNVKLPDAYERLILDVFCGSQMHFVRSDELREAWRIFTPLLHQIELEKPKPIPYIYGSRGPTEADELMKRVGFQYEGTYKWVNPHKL

[22] = P. falciparum Dd2 growth inhibitors, dose response, SYBR Green, cherry-picked samples (AID 1159567); type: functional, cell-based
[23] = HepG2 cell cytotoxicity, dose response, cytotoxicity control, cherry-picked samples (AID 1159577); type: functional, cell-based

With COc1ccc(Cn2c(-c3ccc(C)cc3)c[n+]3ccccc23)cc1 the AC50 [1] was 2.89 µM (active) and the AC50 [2] was 4.52 µM (active).

For Cc1ccc(-c2c(C(=O)N(C)Cc3ccccc3)oc(=O)c3ccccc23)cc1, the IC50 [3] was 11.6 µM (active) and the IC50 [4] was 12.3 µM (active).

For O=C(NN=Cc1c(O)ccc2ccccc12)c1ccncc1, the IC50 [5] was 11.9 µM (active) and the AC50 [6] was 1.17 µM (active).

With C/C=C/C=C/C(=O)OC(C)C(=O)Nc1cc([N+](=O)[O-])ccc1OC (stereo unspecified) the IC50 [7] was > 47.1 µM (inactive), the EC50 [8] was > 53 µM (inactive) and the IC50 [3] was 4.02 µM (active). For the same molecule, the IC50 [4] was 4.79 µM (active).

In the case of CC(=O)N(Cc1ccc(F)cc1)C1=C(NCc2ccccc2)C(=O)c2ccccc2C1=O, the EC50 [9] is reported as 4.92 µM (inconclusive), the EC50 [10] is reported as 8.34 µM (active) and the EC50 [11] is reported as > 120 µM (not active). The EC50 [12] was 8.2 µM (active), the EC50 [13] was 0.708 µM (active) and the EC50 [14] was 0.317 µM (active). For the same molecule, the EC50 [15] was 0.54 µM (active), the EC50 [16] was 7.47 µM (active) and the EC50 [17] was 0.444 µM (active). The IC50 [5] was 35.3 µM (active), the AC50 [18] was 5.17 µM (active) and the EC50 [19] was 0.776 µM (active).

For C[C@@H]1CN([C@@H](C)CO)S(=O)(=O)c2ccc(-c3ccccc3)cc2O[C@H]1CN(C)S(C)(=O)=O, the AC50 [20] was 44 µM (active).

For CC(C)c1nnc(NC(=O)c2cc3ccccc3o2)s1, the IC50 [21] was > 80 µM (inactive).

In the case of N#C[C@H]1[C@H](c2ccc(C#Cc3ccccc3F)cc2)[C@@H](CO)N1C(=O)C1CCCC1, the AC50 [22] is reported as 4.27 µM (active) and the AC50 [23] is reported as > 39 µM (inactive).
